Measured values: patent US20210290784A1, “POSITRON EMISSION TOMOGRAPHY (PET) RADIOTRACERS FOR IMAGING MACROPHAGE COLONY-STIMULATING FACTOR 1 RECEPTOR (CSF1R) IN NEUROINFLAMMATION” (The Johns Hopkins University, priority 2018, published 2021)
Entries after “also recorded” stand apart in the source; their conditions may differ.

Columns and labels:
Design in all cases: from tissue; host or cells: brain of living CD-1, C57BL/6J, transgenic APP (AD model), EAE and CSF1R KO mice
CSF1R [1] = target: T1, CSF1R (Mus musculus, UniProt P09581); assay: Brain uptake in transgenic mouse model of AD; type: in vivo, mice; conditions: all brain regions, 45 min
T1 sequence (P09581 20-977): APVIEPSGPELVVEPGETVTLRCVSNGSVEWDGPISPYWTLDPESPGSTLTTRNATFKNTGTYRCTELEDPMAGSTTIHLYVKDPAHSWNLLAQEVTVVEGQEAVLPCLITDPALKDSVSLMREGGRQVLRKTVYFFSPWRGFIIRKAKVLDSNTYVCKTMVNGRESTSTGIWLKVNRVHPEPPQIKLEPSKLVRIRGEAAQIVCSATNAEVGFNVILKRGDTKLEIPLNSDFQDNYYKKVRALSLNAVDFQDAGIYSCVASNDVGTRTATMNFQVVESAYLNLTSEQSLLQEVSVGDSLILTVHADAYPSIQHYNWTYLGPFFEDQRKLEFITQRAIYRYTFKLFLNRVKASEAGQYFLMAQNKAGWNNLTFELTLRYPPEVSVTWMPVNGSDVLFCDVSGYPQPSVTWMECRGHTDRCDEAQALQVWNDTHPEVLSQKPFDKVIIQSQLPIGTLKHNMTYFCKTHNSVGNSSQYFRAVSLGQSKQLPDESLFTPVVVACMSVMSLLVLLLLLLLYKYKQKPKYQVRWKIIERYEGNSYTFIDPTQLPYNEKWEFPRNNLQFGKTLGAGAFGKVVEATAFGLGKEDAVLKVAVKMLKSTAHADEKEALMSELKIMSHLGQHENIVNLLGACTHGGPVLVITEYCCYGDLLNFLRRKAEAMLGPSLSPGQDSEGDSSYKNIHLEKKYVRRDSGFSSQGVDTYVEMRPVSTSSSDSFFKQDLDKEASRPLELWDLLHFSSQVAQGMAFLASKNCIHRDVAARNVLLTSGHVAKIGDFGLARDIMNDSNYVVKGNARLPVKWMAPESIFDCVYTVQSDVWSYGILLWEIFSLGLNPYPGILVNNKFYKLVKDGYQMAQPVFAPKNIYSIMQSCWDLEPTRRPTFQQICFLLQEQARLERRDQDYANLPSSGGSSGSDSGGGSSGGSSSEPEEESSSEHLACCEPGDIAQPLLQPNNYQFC
Description: Mouse model of Alzheimer's disease-related amyloidosis overexpressed Amyloid Precursor Protein (APP) with Swedish and Indiana mutations was used. The transgenic APP had tetracycline transactivator (tTa)-sensitive promoter that was activated by over-expressing tTa driven by CaMKII promoter (5). Due to such combination of transgenes, the overexpression of transgenic APP was observed only in principal neurons of the forebrain. […] The Alzheimer's male mice (AD) and their sex-matched control littermates were 16 months of age at the time of the study. […] The outcome variables were calculated as % SUV.

CSF1R [2] = target: T1, CSF1R; assay: Blocking study with unlabeled CPPC in control mice; type: in vivo
Experimental: Mice (male CD1 or C57BL/6J) were killed by cervical dislocation at 45 min following i.v. injection of [^11C]CPPC. The blockers, CPPC (0.3, 0.6, 1.2, 3.0, 10, and 20 mg/kg), or CSF1R inhibitor, compound 8 (Illig C R, et al. (2008)) (2 mg/kg), were given i.p., 5 min before [^11C]CPPC, whereas baseline animals received vehicle. […] Regional brain uptake of [^11C]CPPC at baseline was compared with that with blocking.
Animals were sacrificed by cervical dislocation at 45 min following injection of 5.1 MBq (0.14 mCi) [^11C]CPPC [specific radioactivity=511 GBq/μmol (13.8 Ci/μmol)] in 0.2 mL saline into a lateral tail vein. […] The percentage of standardized uptake value (% SUV) was calculated.
Animals were sacrificed by cervical dislocation at 45 min following injection of 5.0 MBq (0.135 mCi) [^11C]CPPC [specific radioactivity=390 GBq/μmol (10.5 Ci/μmol)] in 0.2 mL saline into a lateral tail vein. […] The outcome variables for the cortex are presented without blood correction as % SUV (FIG. 11A) and with blood correction as SUVR (FIG. 11B).

CSF1R [3] = target: T1, CSF1R; assay: PET/CT imaging in EAE mice; type: in vivo

[11CH3]N1CCN(c2ccc(NC(=O)c3ccc(C#N)o3)c(N3CCCCC3)c2)CC1 [[^11C]CPPC, 5-cyano-N-(4-(4-[^11C]methylpiperazin-1-yl)-2-(piperidin-1-yl)phenyl)furan-2-carboxamide]
uptake in brain regions of AD mice vs control (CSF1R [1]): significantly greater; also recorded: significantly higher
blood corrected cortex SUVR, blocking vs baseline (CSF1R [2]; CD1 mice, unlabeled CPPC 0.6 and 3 mg/kg, P=0.05, n=3): significantly lower
cortex % SUV, blocking vs baseline, without blood correction (CSF1R [2]; CD1 mice, unlabeled CPPC 0.6 and 3 mg/kg, P>0.05, n=3): No significant difference
reduction of radioactivity (SUVR, blood-corrected) with blocking (CSF1R [2]; control CD1 mice, cortex, unlabeled CPPC 0.6 and 3 mg/kg IP, 45 min): 20%
% SUV brain uptake with blocking, low doses of unlabeled CPPC (CSF1R [2]; control CD1 mice, dose escalation, 0.6-3 mg/kg, 45 min, no blood correction): no reduction; also recorded: failed to show a significant reduction; also recorded: insignificant blockade
% SUV brain uptake with blocking, high doses of unlabeled CPPC (CSF1R [2]; control CD1 mice, dose escalation, 10-20 mg/kg, 45 min, no blood correction): gradual trend toward increased uptake; also recorded: insignificant gradual increase of uptake
brainstem uptake in EAE mice vs control animals (CSF1R [3]): up to twofold greater
